PMC10752118 (Therapeutic Advances in Medical Oncology, 2023)

What was measured:
[1] = tested on: treatment refractory HER2 over-expressing breast cancer; conditions: in combination with weekly trastuzumab and paclitaxel, nine patients; cited from earlier work
[2] = tested on: patients with advanced TNBC; assay: Phase Ib 3 + 3 dose escalation: DLT assessment, MTD and RP2D; type: in vivo, human
[3] = biological target: HSP90; conditions: read-out: dissociation constant (Kd); cited from earlier work
[4] = cited from earlier work
[5] = tested on: uridine diphosphate-glucoronosyltransferases; conditions: cited from earlier work
[6] = tested on: P-glycoprotein (P-gp) multidrug transporter; conditions: cited from earlier work
[7] = prior single-agent study; cited from earlier work
[8] = Plasma PK, noncompartmental analysis; type: in vivo, human; conditions: for observed clearance (CL), dose dependence: 1 h IV infusion
[9] = Day 7 (no paclitaxel), DL1, onalespib 120 mg/m^2 IV, geometric mean ± SD
[10] = Day 7 (no paclitaxel), DL2, onalespib 150 mg/m^2 IV, geometric mean ± SD
[11] = Day 7 (no paclitaxel), DL3, onalespib 200 mg/m^2 IV, geometric mean ± SD
[12] = Day 7 (no paclitaxel), DL4, onalespib 260 mg/m^2 IV, geometric mean ± SD
[13] = Day 8 (with 80 mg/m^2 paclitaxel), DL1, onalespib 120 mg/m^2 IV, geometric mean ± SD
[14] = Day 8 (with 80 mg/m^2 paclitaxel), DL2, onalespib 150 mg/m^2 IV, geometric mean ± SD
[15] = Day 8 (with 80 mg/m^2 paclitaxel), DL3, onalespib 200 mg/m^2 IV, geometric mean ± SD
[16] = Day 8 (with 80 mg/m^2 paclitaxel), DL4, onalespib 260 mg/m^2 IV, geometric mean ± SD
[17] = Day 1 (no onalespib), 80 mg/m^2 paclitaxel IV, DL1, geometric mean ± SD
[18] = Day 1 (no onalespib), 80 mg/m^2 paclitaxel IV, DL2, geometric mean ± SD
[19] = Day 1 (no onalespib), 80 mg/m^2 paclitaxel IV, DL3, geometric mean ± SD
[20] = Day 1 (no onalespib), 80 mg/m^2 paclitaxel IV, DL4, geometric mean ± SD

In the case of `CC(C)c1cc(-c2n[nH]c(=O)n2-c2ccc3c(ccn3C)c2)c(O)cc1O` [ganetespib], the partial response [1] is given as 22% and the stable disease [1] is given as 56%.

In the case of `CC(C)c1cc(C(=O)N2Cc3ccc(CN4CCN(C)CC4)cc3C2)c(O)cc1O` [onalespib, (2,4-dihydroxy-5-isopropylphenyl)-[5-(4-methylpiperazin-1-ylmethyl)-1,3-dihydroisoindol-2-yl]methanone], the MTD of onalespib ([2]; combined with paclitaxel 80 mg/m^2, IV days 1, 8, 15 of 28-day cycle) is listed as 260 mg/m^2, the RP2D of onalespib ([2]; given with paclitaxel 80 mg/m^2, IV days 1, 8, 15 of 28-day cycle) is listed as 260 mg/m^2 and the Kd [3] is listed as 0.71 nM. The water solubility [4] was “High water solubility”, the glucuronidation substrate status [5] was “substrate for glucuronidation” and the “interaction with P-gp” value [6] was “substrate and moderate inhibitor of P-gp”. The maximum tolerated dose [7] was 260 mg/m^2, the “exposure (AUCinf and Cmax), dose proportionality” value ([8]; 120 to 260 mg/m^2) was “approximately dose-proportional” and the “observed clearance (CL), dose dependence” value [8] was “independent of dose”. For the same compound, the CL [8, 9] was 42.6 ± 4.99 L/h/m^2, the Vz [8, 9] was 344 ± 134 L/m^2 and the CL [8, 10] was 51.1 ± 4.37 L/h/m^2. For the same compound, the Vz [8, 10] was 443 ± 23.2 L/m^2, the CL [8, 11] was 48.4 ± 29.2 L/h/m^2 and the Vz [8, 11] was 522 ± 273 L/m^2. For the same compound, the CL [8, 12] was 41.6 ± 10.0 L/h/m^2, the Vz [8, 12] was 427 ± 102 L/m^2 and the CL [8, 13] was 47.9 ± 2.03 L/h/m^2. The Vz [8, 13] was 730 ± 121 L/m^2, the CL [8, 14] was 64.3 ± 21.0 L/h/m^2 and the Vz [8, 14] was 801 ± 263 L/m^2. The CL [8, 15] was 51.4 ± 14.8 L/h/m^2, the Vz [8, 15] was 717 ± 282 L/m^2 and the CL [8, 16] was 45.2 ± 13.4 L/h/m^2. For the same compound, the Vz [8, 16] was 598 ± 208 L/m^2, the “effect of combination with paclitaxel on overall exposure (AUCinf and Cmax)” value ([8]; cycle 1 day –7 versus day 8) was “no apparent changes in overall exposure” and the AUC(0-inf) ([8]; human, plasma, intravenous, AUCinf, range, single agent, cycle 1, day –7, all DLs (120 to 260 mg/m^2)) was 4.3 to 22.7 µM·h. The half-life ([8]; human, plasma, intravenous, mean t1/2, range across DLs, as a single agent only) was 6.04 to 7.32 h, the AUC(0-inf) ([8]; human, plasma, iv, 120 mg/m2, AUCinf, Day 7 (no paclitaxel), DL1, onalespib 120 mg/m^2 IV, geometric mean ± SD) was 6.72 ± 0.688 µM·h and the Cmax ([8]; human, plasma, iv, 120 mg/m2, Cmax, Day 7 (no paclitaxel), DL1, onalespib 120 mg/m^2 IV, geometric mean ± SD) was 2.8 ± 0.844 µM. For the same compound, the half-life ([8]; human, plasma, iv, 120 mg/m2, t1/2, Day 7 (no paclitaxel), DL1, onalespib 120 mg/m^2 IV, median (range)) was 7.23 h, the AUC(0-inf) ([8]; human, plasma, iv, 200 mg/m2, AUCinf, Day 7 (no paclitaxel), DL3, onalespib 200 mg/m^2 IV, geometric mean ± SD) was 10 ± 4.35 µM·h and the Cmax ([8]; human, plasma, iv, 200 mg/m2, Cmax, Day 7 (no paclitaxel), DL3, onalespib 200 mg/m^2 IV, geometric mean ± SD) was 3.21 ± 2.56 µM. It also gave a half-life ([8]; human, plasma, iv, 200 mg/m2, t1/2, Day 7 (no paclitaxel), DL3, onalespib 200 mg/m^2 IV, median (range)) of 7.32 h, an AUC(0-inf) ([8]; human, plasma, iv, 260 mg/m2, AUCinf, Day 7 (no paclitaxel), DL4, onalespib 260 mg/m^2 IV, geometric mean ± SD) of 15.2 ± 3.84 µM·h and a Cmax ([8]; human, plasma, iv, 260 mg/m2, Cmax, Day 7 (no paclitaxel), DL4, onalespib 260 mg/m^2 IV, geometric mean ± SD) of 5.36 ± 2.8 µM. It also gave a half-life ([8]; human, plasma, iv, 260 mg/m2, t1/2, Day 7 (no paclitaxel), DL4, onalespib 260 mg/m^2 IV, median (range)) of 6.83 h, an AUC(0-inf) ([8]; human, plasma, iv, AUCinf, Day 8 (with 80 mg/m^2 paclitaxel), DL1, onalespib 120 mg/m^2 IV, geometric mean ± SD) of 6.1 ± 0.244 µM·h and an AUC(0-inf) ([8]; human, plasma, iv, AUCinf, Day 8 (with 80 mg/m^2 paclitaxel), DL2, onalespib 150 mg/m^2 IV, geometric mean ± SD) of 5.64 ± 2.32 µM·h. It also gave an AUC(0-inf) ([8]; human, plasma, iv, AUCinf, Day 8 (with 80 mg/m^2 paclitaxel), DL3, onalespib 200 mg/m^2 IV, geometric mean ± SD) of 9.46 ± 2.24 µM·h, an AUC(0-inf) ([8]; human, plasma, iv, AUCinf, Day 8 (with 80 mg/m^2 paclitaxel), DL4, onalespib 260 mg/m^2 IV, geometric mean ± SD) of 14 ± 4.66 µM·h and a Cmax ([8]; human, plasma, iv, Cmax, Day 8 (with 80 mg/m^2 paclitaxel), DL1, onalespib 120 mg/m^2 IV, geometric mean ± SD) of 2.74 ± 0.676 µM. The Cmax ([8]; human, plasma, iv, Cmax, Day 8 (with 80 mg/m^2 paclitaxel), DL2, onalespib 150 mg/m^2 IV, geometric mean ± SD) was 2.41 ± 1.03 µM, the Cmax ([8]; human, plasma, iv, Cmax, Day 8 (with 80 mg/m^2 paclitaxel), DL3, onalespib 200 mg/m^2 IV, geometric mean ± SD) was 4.64 ± 2.64 µM and the Cmax ([8]; human, plasma, iv, Cmax, Day 8 (with 80 mg/m^2 paclitaxel), DL4, onalespib 260 mg/m^2 IV, geometric mean ± SD) was 5.53 ± 4.5 µM. For the same compound, the half-life ([8]; human, plasma, iv, t1/2, Day 8 (with 80 mg/m^2 paclitaxel), DL1, onalespib 120 mg/m^2 IV, median (range)) was 10.5 h, the half-life ([8]; human, plasma, iv, t1/2, Day 8 (with 80 mg/m^2 paclitaxel), DL2, onalespib 150 mg/m^2 IV, median (range)) was 8.55 h and the half-life ([8]; human, plasma, iv, t1/2, Day 8 (with 80 mg/m^2 paclitaxel), DL3, onalespib 200 mg/m^2 IV, median (range)) was 9.62 h. It also gave a half-life ([8]; human, plasma, iv, t1/2, Day 8 (with 80 mg/m^2 paclitaxel), DL4, onalespib 260 mg/m^2 IV, median (range)) of 9.11 h.

In the case of `CC(=O)O[C@H]1C(=O)[C@@]2(C)[C@H]([C@H](OC(=O)c3ccccc3)[C@]3(O)C[C@H](OC(=O)[C@H](O)[C@@H](NC(=O)c4ccccc4)c4ccccc4)C(C)=C1C3(C)C)[C@]1(OC(C)=O)CO[C@@H]1C[C@@H]2O` [paclitaxel], the “interaction with P-gp” value [6] is listed as “substrate for MDR1 P-gp”, the “observed clearance (CL), dose dependence” value [8] is listed as “independent of dose” and the CL [8, 17] is listed as 12.6 ± 2.63 L/h/m^2. The Vz [8, 17] was 279 ± 41.9 L/m^2, the AUCinf [8, 18] was 5.59 ± 0.185 µM·h and the CL [8, 18] was 16.8 ± 0.535 L/h/m^2. The Cmax [8, 18] was 4.17 ± 0.299 µM, the Vz [8, 18] was 216 ± 19.3 L/m^2 and the CL [8, 19] was 15.3 ± 4.77 L/h/m^2. For the same compound, the Cmax [8, 19] was 4.45 ± 2.28 µM, the Vz [8, 19] was 206 ± 89.8 L/m^2 and the CL [8, 20] was 11.9 ± 2.78 L/h/m^2. The Cmax [8, 20] was 4.68 ± 1.82 µM, the Vz [8, 20] was 181 ± 46.0 L/m^2 and the t1/2 ([8]; Day 8, 80 mg/m^2 paclitaxel IV with onalespib 120 mg/m^2, DL1, median (range)) was 15.0 (13.1–15.4) h. For the same compound, the AUC(0-inf) ([8]; human, plasma, intravenous, 80 mg/m^2, Mean AUCinf, range across DLs, single agent, cycle 1, day 1, 80 mg/m^2) was 5.59 to 7.75 µM·h, the Cmax ([8]; human, plasma, intravenous, 80 mg/m^2, Mean Cmax, range across DLs, single agent, cycle 1, day 1, 80 mg/m^2) was 3.87 to 4.68 µM and the AUC(0-inf) ([8]; human, plasma, intravenous, mean AUCinf, range across all four DLs, cycle 1, day 8, 80 mg/m^2 in combination with onalespib) was 6.5 to 8.72 µM·h. It also gave a Cmax ([8]; human, plasma, intravenous, mean Cmax, range across all four DLs, cycle 1, day 8, 80 mg/m^2 in combination with onalespib) of 2.99 to 4.23 µM, an AUC(0-inf) ([8]; human, plasma, iv, 80 mg/m2, AUCinf, Day 1 (no onalespib), 80 mg/m^2 paclitaxel IV, DL1, geometric mean ± SD) of 7.44 ± 1.54 µM·h and an AUC(0-inf) ([8]; human, plasma, iv, 80 mg/m2, AUCinf, Day 1 (no onalespib), 80 mg/m^2 paclitaxel IV, DL3, geometric mean ± SD) of 6.1 ± 2.24 µM·h. The AUC(0-inf) ([8]; human, plasma, iv, 80 mg/m2, AUCinf, Day 1 (no onalespib), 80 mg/m^2 paclitaxel IV, DL4, geometric mean ± SD) was 7.75 ± 1.75 µM·h, the half-life ([8]; human, plasma, iv, 80 mg/m2, t1/2, Day 1 (no onalespib), 80 mg/m^2 paclitaxel IV, DL2, median (range)) was 9.18 h and the half-life ([8]; human, plasma, iv, 80 mg/m2, t1/2, Day 1 (no onalespib), 80 mg/m^2 paclitaxel IV, DL3, median (range)) was 9.06 h. The half-life ([8]; human, plasma, iv, 80 mg/m2, t1/2, Day 1 (no onalespib), 80 mg/m^2 paclitaxel IV, DL4, median (range)) was 10.6 h, the AUC(0-inf) ([8]; human, plasma, iv, AUCinf, Day 8, 80 mg/m^2 paclitaxel IV with onalespib 120 mg/m^2, DL1, geometric mean ± SD) was 7.97 ± 2.95 µM·h and the AUC(0-inf) ([8]; human, plasma, iv, AUCinf, Day 8, 80 mg/m^2 paclitaxel IV with onalespib 200 mg/m^2, DL3, geometric mean ± SD) was 6.47 ± 2.18 µM·h. For the same compound, the AUC(0-inf) ([8]; human, plasma, iv, AUCinf, Day 8, 80 mg/m^2 paclitaxel IV with onalespib 260 mg/m^2, DL4, geometric mean ± SD) was 8.72 ± 2.54 µM·h, the Cmax ([8]; human, plasma, iv, Cmax, Day 8, 80 mg/m^2 paclitaxel IV with onalespib 120 mg/m^2, DL1, geometric mean ± SD) was 2.99 ± 3.59 µM and the Cmax ([8]; human, plasma, iv, Cmax, Day 8, 80 mg/m^2 paclitaxel IV with onalespib 200 mg/m^2, DL3, geometric mean ± SD) was 4.23 ± 2.18 µM. The half-life ([8]; human, plasma, iv, t1/2, Day 8, 80 mg/m^2 paclitaxel IV with onalespib 200 mg/m^2, DL3, median (range)) was 8.67 h and the half-life ([8]; human, plasma, iv, t1/2, Day 8, 80 mg/m^2 paclitaxel IV with onalespib 260 mg/m^2, DL4, median (range)) was 10.7 h.
